Laboratory results: patent US7932290B2, “Method for the treatment of metabolic disorders” (Wellstat Biologics Corporation, priority 2003, dated 2011)
Blank lines part the entries; values can stand above or below the compound they belong to.

How the values were obtained:
[1] = tested on: db/db mice; assay: Antidiabetic effects in db/db mice, Example B (2 weeks daily oral dosing); format: in vivo, mouse
Excerpt: (§1) db/db mice have a defect in leptin signaling, leading to hyperphagia, obesity and diabetes. Moreover, unlike ob/ob mice on a C57BL/6J background, db/db mice on a C57BL/KS background undergo failure of their insulin-producing pancreatic islet cells, resulting in progression from hyperinsulinemia (associated with peripheral insulin resistance) to hypoinsulinemic diabetes.
(§2) Male obese (db/db homozygote) C57BL/Ksola mice approximately 8 weeks of age, were obtained from Jackson Labs (Bar Harbor, Me.) and randomly assigned into groups of 5-7 animals such that the body weights (50-55 g) and serum glucose levels (≧300 mg/dl in fed state) were similar between groups; male lean (db/+heterozygote) mice served as cohort controls. A minimum of 7 days was allowed for adaptation after arrival. All animals were maintained under controlled temperature (23° C.), relative humidity (50±5%) and light (7:00-19:00), and allowed free access to standard chow (Formulab Diet 5008, Quality Lab Products, Elkridge, Md.) and water.
Treatment cohorts were given daily oral doses of Vehicle (1% hydroxypropylmethylcellulose), Compounds BI, CE, BT, BV, […] or Fenofibrate for 2 weeks. At the end of the treatment period 100 μl of venous blood was withdrawn in a heparinized capillary tube from the retro-orbital sinus of db/db mice for serum chemistry analysis.

[2] = target: T1, Human PPARα LBD fusion protein (Homo sapiens, UniProt Q07869); assay: Transcription activation potential, GAL4 luciferase reporter in C3A cells; format: cell-based
T1 construct: a.a; 167-468)
T1 sequence (Q07869 167-468): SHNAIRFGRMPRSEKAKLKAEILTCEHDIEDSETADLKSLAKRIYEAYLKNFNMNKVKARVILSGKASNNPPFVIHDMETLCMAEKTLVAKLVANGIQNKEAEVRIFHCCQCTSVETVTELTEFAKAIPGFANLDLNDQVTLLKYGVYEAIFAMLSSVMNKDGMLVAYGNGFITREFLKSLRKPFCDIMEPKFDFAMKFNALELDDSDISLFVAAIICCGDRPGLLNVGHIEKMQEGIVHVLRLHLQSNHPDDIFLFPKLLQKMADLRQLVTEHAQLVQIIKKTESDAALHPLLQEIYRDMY
Procedure: (§3) Cells were seeded in 24 well plates the day prior to transfection at 5×10^4−2×10^5 cells/well, depending upon cell type. Cells were transfected using Lipofectamine 2000 reagent from Invitrogen. A total of 0.8 μg DNA/well was added to 50 μL of Optimem Reduced Serum media (serum free; Gibco). Lipofectamine 2000 was added (2.5 μL/well) to another tube containing 50 μL of Optimem media. Plasmid DNA was added at a ratio of 4:3 (reporter:activator); where appropriate, salmon sperm DNA was substituted for activator expressing plasmid. The reporter plasmid used was pFR-Luc, which has the firefly luciferase gene under the control of a GAL4 UAS ([…]) containing promoter. The activator expressing plasmids contain yeast GAL4 DNA binding domain (dbd) fusion of either human PPARα ligand binding domain (LBD; a.a. 167-468) or human PPARγ LBD (a.a. 176-479). DNA constructs containing the mouse PPARα or PPARγ LBD fused to the GAL4 DNA binding domain were also used. The two solutions were incubated at room temperature for 5 min, and then combined. The combined solution was incubated at room temperature for approximately 30 min. Cells were washed once with PBS, and 100 μL of transfection mix added to each well. Plates were incubated at 37° C. in a 5% CO2 incubator for 4.5 hr, followed by aspiration of the transfection mix, with plates refed using EMEM complete media (supplemented with 10% FBS, 1× Glutamine). 24 hr post-transfection, plates were treated with the appropriate compounds in EMEM complete media, followed by washing once with PBS and addition of 100 μL 1× reporter lysis buffer/well (Promega) 24 hr after treatment. Plates went through one freeze/thaw cycle prior to analysis. Approximately 10 μL of lysate was added to 100 μL of firefly luciferase substrate, mixed by pipetting, and analyzed on a luminometer for 10 s using the integration function (relative luciferase units/RLU) or on a Microbeta Trilux (luciferase counts per second/LCPS). Each treatment was performed in triplicate, and in multiple, separate experiments.

[3] = target: T2, Mouse PPARα LBD fusion protein (Mus musculus, UniProt P23204); assay: as above; format: cell-based; conditions: Table 20a
T2 sequence (P23204 239-466): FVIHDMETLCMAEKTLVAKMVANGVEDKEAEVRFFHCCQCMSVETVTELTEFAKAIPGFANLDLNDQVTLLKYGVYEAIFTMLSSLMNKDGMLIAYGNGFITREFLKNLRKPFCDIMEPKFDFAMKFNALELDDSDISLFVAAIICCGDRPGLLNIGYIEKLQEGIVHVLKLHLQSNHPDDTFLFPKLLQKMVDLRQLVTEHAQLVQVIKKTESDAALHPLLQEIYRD
Procedure: as §3

[4] = tested on: Human PPARγ LBD fusion protein; assay: as above; format: cell-based
Procedure: (§4) Cells were seeded in 24 well plates the day prior to transfection at 5×10^4−2×10^5 cells/well, depending upon cell type. Cells were transfected using Lipofectamine 2000 reagent from Invitrogen. A total of 0.8 μg DNA/well was added to 50 μL of Optimem Reduced Serum media (serum free; Gibco). Lipofectamine 2000 was added (2.5 μL/well) to another tube containing 50 μL of Optimem media. Plasmid DNA was added at a ratio of 4:3 (reporter:activator); where appropriate, salmon sperm DNA was substituted for activator expressing plasmid. […] DNA constructs containing the mouse PPARα or PPARγ LBD fused to the GAL4 DNA binding domain were also used. The two solutions were incubated at room temperature for 5 min, and then combined. The combined solution was incubated at room temperature for approximately 30 min. Cells were washed once with PBS, and 100 μL of transfection mix added to each well. Plates were incubated at 37° C. in a 5% CO2 incubator for 4.5 hr, followed by aspiration of the transfection mix, with plates refed using EMEM complete media (supplemented with 10% FBS, 1× Glutamine). 24 hr post-transfection, plates were treated with the appropriate compounds in EMEM complete media, followed by washing once with PBS and addition of 100 μL 1× reporter lysis buffer/well (Promega) 24 hr after treatment. Plates went through one freeze/thaw cycle prior to analysis. Approximately 10 μL of lysate was added to 100 μL of firefly luciferase substrate, mixed by pipetting, and analyzed on a luminometer for 10 s using the integration function (relative luciferase units/RLU) or on a Microbeta Trilux (luciferase counts per second/LCPS). Each treatment was performed in triplicate, and in multiple, separate experiments.

[5] = target: T3, Mouse PPARγ LBD fusion protein (Mus musculus, UniProt P37238); assay: as above; format: cell-based; conditions: Table 20b
T3 sequence (P37238 238-503): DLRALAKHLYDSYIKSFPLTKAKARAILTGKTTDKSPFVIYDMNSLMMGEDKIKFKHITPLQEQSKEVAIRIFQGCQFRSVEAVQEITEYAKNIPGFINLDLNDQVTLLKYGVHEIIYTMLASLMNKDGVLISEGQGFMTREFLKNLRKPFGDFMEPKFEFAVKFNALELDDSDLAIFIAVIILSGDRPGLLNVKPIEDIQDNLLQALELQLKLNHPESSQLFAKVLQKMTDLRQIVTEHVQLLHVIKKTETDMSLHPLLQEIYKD
Procedure: as §4

[6] = tested on: db/db mice; assay: Antidiabetic effects in db/db mice, Example C (17 days daily oral dosing); format: in vivo, mouse; conditions: 300 mg/kg daily oral
Excerpt: as §1, with “C57BL/Ksola (db/db) mice have” for “db/db mice have”, “on a C57BLKS background undergo” for “on a C57BL/KS background undergo”
as §2, with “sorted” for “randomly assigned”, “7 animals each” for “5-7”, “(40-45” for “(50-55”, “groups.” for “groups; male lean (db/+heterozygote) mice served as cohort controls.”
Treatment cohorts were given daily oral doses of vehicle (1% hydroxypropylmethylcellulose), Compounds BI, CF, CG, or phenylacetate for 17 days. At the end of the treatment period, blood samples were collected and serum glucose and triglycerides were measured.

[7] = serum, 2 weeks daily oral, dose not given in Table 17 (see Table 16)

- transcription activation potential (luciferase) ± standard deviation ([2]; 1 μM): 14.7 ± 14.6 LCPS
- transcription activation potential (luciferase) ± standard deviation ([2]; 3 μM): 13.2 ± 5.8 LCPS
- transcription activation potential (luciferase) ± standard deviation ([2]; 10 μM): 26.2 ± 1.4 LCPS
- transcription activation potential (luciferase) ± standard deviation ([2]; 30 μM): 10.67 ± 1.2 LCPS
- transcription activation potential (luciferase) ± standard deviation ([2]; 100 μM): 6.33 ± 2.6 LCPS
- transcription activation potential (luciferase) ± standard deviation ([2]; 200 μM): 12.8 ± 3.7 LCPS
- transcription activation potential (luciferase) ± standard deviation ([3]; 1 μM): 9.47 ± 2.14 LCPS
- transcription activation potential (luciferase) ± standard deviation ([3]; 3 μM): 9.57 ± 2.61 LCPS
- transcription activation potential (luciferase) ± standard deviation ([3]; 10 μM): 1.17 ± 2.49 LCPS
- transcription activation potential (luciferase) ± standard deviation ([3]; 30 μM): 7.4 ± 0.23 LCPS
- transcription activation potential (luciferase) ± standard deviation ([3]; 100 μM): 6.13 ± 0.17 LCPS
- transcription activation potential (luciferase) ± standard deviation ([3]; 200 μM): 8 ± 1.88 LCPS
- transcription activation potential (luciferase) ± standard deviation ([5]; 1 μM test compound): 14.3 ± 4.5 LCPS
- transcription activation potential (luciferase) ± standard deviation ([5]; 3 μM test compound): 13.43 ± 8.5 LCPS
- transcription activation potential (luciferase) ± standard deviation ([5]; 10 μM test compound): 6.03 ± 3.75 LCPS
- transcription activation potential (luciferase) ± standard deviation ([5]; 30 μM test compound): 9.6 ± 5.46 LCPS
- transcription activation potential (luciferase) ± standard deviation ([5]; 100 μM test compound): 11.7 ± 11.7 LCPS
- transcription activation potential (luciferase) ± standard deviation ([5]; 200 μM test compound): 10.5 ± 9.2 LCPS
SMILES: Cc1cccc(C)c1COc1cccc(CCCC(=O)O)c1 [CE, 4-(3-(2,6-Dimethylbenzyloxy)phenyl)butyric acid]
- Glucose (% of Control) ([1]; 93 mg/kg daily oral, 2 weeks): 54 ± 8 % of Control
- Glucose ([1]; nonfasting, 93 mg/kg daily oral, 2 weeks): 372.0 ± 53.8 mg/dL
- Free Fatty Acids ± SEM [1, 7]: 2867.4 ± 267.7 µM
- Triglycerides ± SEM [1, 7]: 132.0 ± 15.2 mg/dL
- transcription activation potential (luciferase) ± standard deviation ([4]; 1 μM test compound): 60 ± 11.6 LCPS
- transcription activation potential (luciferase) ± standard deviation ([4]; 3 μM test compound): 73.3 ± 30.9 LCPS
- transcription activation potential (luciferase) ± standard deviation ([4]; 10 μM test compound): 57.3 ± 22.6 LCPS
- transcription activation potential (luciferase) ± standard deviation ([4]; 30 μM test compound): 28.5 ± 16.4 LCPS
- transcription activation potential (luciferase) ± standard deviation ([4]; 100 μM test compound): 37.7 ± 23.4 LCPS
- transcription activation potential (luciferase) ± standard deviation ([4]; 200 μM test compound): 12.3 ± 4.8 LCPS

SMILES: O=C(O)Cc1ccccc1 [Phenylacetate, reference compound]
- Glucose mg/dL (±SEM) [6]: 661 ± 64 mg/dL
- Triglycerides [6]: 171 ± 33 mg/dL
